Measured values published in patent US8618170B2, “Oral formulations of bis(thiohydrazide amides)” (Synta Pharmaceuticals Corp., priority 2007, dated 2013).

Key:
[1] = Pharmacokinetics after IV or oral administration in rat; assay type: in vivo, SD rat; conditions: for bioavailability / AUC(0-inf) / Cmax / half-life / Tmax: male, Sprague-Dawley, plasma
Text: (§1) The pharmacokinetics of compounds of the invention were compared in mouse, rat and dog by either intravenous or oral administration in various formulations including drug powder in capsules or in combination with generally recognized as safe (GRAS) excipients. After administration in animals, blood samples were collected at the appropriate time points and plasma was obtained for bioanalysis. Compounds were extracted by protein precipitation and analyzed by LC-UV or LC-MS/MS. PK analysis was performed by noncompartmental analysis using WinNonlin. Oral bioavailability (% F) was calculated based on AUC of Compound 1.
(§2) Blood was collected into heparinized tubes that contained dithioreitol (DTT; ˜2 mg/mL) at each time point. After centrifugation plasma was transferred to a new tube that contained DMSO (Plasma:DMSO ration 2:1 for rat/mouse, 9:1 for dog).
(§3) The pharmacokinetic parameters for compounds of the invention were determined from the plasma concentration data using the Noncompartmental Analysis module in WinNonlin, version 5.0 (Pharsight Corporation).

[2] = Pharmacokinetics after IV or oral administration in dog; assay type: in vivo; conditions: Beagle dog M; for AUC(0-inf) / Cmax / Tmax / half-life / bioavailability: male, plasma
Text: as §1, §2, §3

Aqueous solubility = assay type: physicochemical; conditions: water
[3] = Pharmacokinetics after IV or oral administration in mouse; assay type: in vivo; conditions: female, plasma, CD-1 mouse F
Text: as §1, §2, §3

[4] = rat, iv, 25 mg/kg, SD rat M, IV bolus, Saline
[5] = rat, po, 50 mg/kg, SD rat M, Saline
[6] = rat, po, 50 mg/kg, SD rat M, capsule (powder), 50 mg/kg as Compound 1 (free acid)
[7] = beagle, dog, po, 50 mg/kg, capsule (powder), 50 mg/kg as Compound 1 (free acid)
[8] = IV bolus, EES (sol'n), 10 mg/kg
[9] = PO, TPGS/PEG400 (sol'n), 100 mg/kg
[10] = rat, iv, 25 mg/kg, SD rat M, IV bolus, EES (sol'n)
[11] = rat, iv, 50 mg/kg, SD rat M, IV bolus, Phospholipid
[12] = rat, iv, 80 mg/kg, SD rat M, IV bolus, HP-β-CD/saline
[13] = rat, iv, 80 mg/kg, SD rat M, IV bolus, Lyophilized HP-β-CD/saline
[14] = rat, other: PI, 80 mg/kg, SD rat M, route PI, Lyophilized HP-β-CD/saline, 80 mg/kg
[15] = rat, po, 50 mg/kg, SD rat M, 0.5% MC (suspension)
[16] = rat, po, 50 mg/kg, SD rat M, Phospholipid
[17] = rat, po, 50 mg/kg, SD rat M, TPGS/PEG400 (sol'n)
[18] = rat, po, 50 mg/kg, SD rat M, nanoparticles (colloidal dispersion)
[19] = rat, po, 80 mg/kg, SD rat M, HP-β-CD/saline
[20] = rat, PO, nanoparticles (colloidal dispersion) vs 0.5% methylcellulose suspension
[21] = beagle, dog, iv, 10 mg/kg, 1 h IV infusion, EES (sol'n)
[22] = beagle, dog, po, 50 mg/kg, TPGS/PEG400 (sol'n)
[23] = beagle, dog, po, 50 mg/kg, nanoparticles (colloidal dispersion)
[24] = PO, capsule (powder), 50 mg/kg as Compound 1 (free acid)

## CN(NC(=O)CC(=O)NN(C)C(=S)c1ccccc1)C(=S)c1ccccc1 [Compound 22]
[1]; SD rat M, PO, Saline, 50 mg/kg
  bioavailability: 10.5%
[1]; [4]
  AUC(0-inf): 11.6 µg·h/mL
  Cmax: 39.1 µg/mL
  half-life: 222 min
[1]; [5]
  AUC(0-inf): 4.76 µg·h/mL
  Cmax: 2.4 µg/mL
  Tmax: 37.8 min
  half-life: 150 min

## CN(/N=C(\[O-])C/C([O-])=N/N(C)C(=S)c1ccccc1)C(=S)c1ccccc1.[Na+].[Na+] [Compound 19]
[1]; SD rat M, PO, capsule (powder), 50 mg/kg as Compound 1 (free acid), reference Compound 1 IV bolus, based on AUC of Compound 1, 50 mg/kg
  % F: 7.5%
[1]; [6]
  AUC(0-inf): 1.41 µg·h/mL
  Cmax: 0.64 µg/mL
  Tmax: 36 min
  half-life: 234 min
[1]; rat, po, 50 mg/kg, SD rat M, capsule (powder), 50 mg/kg as Compound 1 (free acid), reference Compound 1 IV bolus, based on AUC of Compound 1
  bioavailability: 5.7%
[2]; PO, capsule (powder), 50 mg/kg as Compound 1 (free acid), reference Compound 1 IV infusion, based on AUC of Compound 1, 50 mg/kg
  % F: 80.2%
[2]; [7]
  AUC(0-inf): 103 µg·h/mL
  Cmax: 40.4 µg/mL
  Tmax: 48 min
  half-life: 126 min
Aqueous solubility
  solubility: ~50 mg/mL

## CN(NC(=O)CC(=O)NN(C)C(=S)c1ccccc1)C(=S)c1ccccc1 [Compound 1]
[3]; [8]
  AUC(0-inf): 3.95 µg·h/mL
  Cmax: 6.5 µg/mL
  Tmax: 4.98 min
  half-life: 54 min
[3]; [9]
  AUC(0-inf): 8.64 µg·h/mL
  Cmax: 12.4 µg/mL
  Tmax: 15 min
  half-life: 60 min
[3]; PO, TPGS/PEG400 (sol'n), 100 mg/kg, reference Compound 1 IV bolus
  bioavailability: 21.9%
[1]; [10]
  AUC(0-inf): 9.27 µg·h/mL
  Cmax: 29 µg/mL
  Tmax: 4.98 min
  half-life: 102 min
[1]; [11]
  AUC(0-inf): 29.7 µg·h/mL
  Cmax: 95.3 µg/mL
  Tmax: 4.98 min
  half-life: 54 min
[1]; [12]
  AUC(0-inf): 23.7 µg·h/mL
  Cmax: 58.8 µg/mL
  Tmax: 4.98 min
  half-life: 48 min
[1]; [13]
  AUC(0-inf): 25.7 µg·h/mL
  Cmax: 63.8 µg/mL
  Tmax: 4.98 min
  half-life: 24 min
[1]; [14]
  AUC(0-inf): 5.19 µg·h/mL
  Cmax: 2.55 µg/mL
  Tmax: 15 min
  bioavailability: 21.3%
  half-life: 138 min
[1]; [15]
  AUC(0-inf): 1.22 µg·h/mL
  Cmax: 0.28 µg/mL
  Tmax: 30 min
  half-life: 192 min
[1]; rat, po, 50 mg/kg, SD rat M, 0.5% MC (suspension), reference Compound 1 IV bolus
  bioavailability: 6.6%
[1]; [16]
  AUC(0-inf): 3.79 µg·h/mL
  Cmax: 2.05 µg/mL
  Tmax: 15 to 30 min
  bioavailability: 8.8%
  half-life: 54 min
[1]; [17]
  AUC(0-inf): 2.77 µg·h/mL
  Cmax: 1.41 µg/mL
  Tmax: 18 min
  half-life: 126 min
[1]; rat, po, 50 mg/kg, SD rat M, TPGS/PEG400 (sol'n), reference Compound 1 IV bolus
  bioavailability: 14.9%
[1]; [18]
  AUC(0-inf): 2.37 µg·h/mL
  Cmax: 1.07 µg/mL
  Tmax: 18 min
  half-life: 186 min
[1]; rat, po, 50 mg/kg, SD rat M, nanoparticles (colloidal dispersion), reference Compound 1 IV bolus
  bioavailability: 12.8%
[1]; [19]
  AUC(0-inf): 4.33 µg·h/mL
  Cmax: 2.21 µg/mL
  Tmax: 15 to 30 min
  bioavailability: 17.5%
  half-life: 72 min
[1]; [20]
  AUC after nanoparticles compared with the suspension: higher
  Cmax after nanoparticles compared with the suspension: higher
[2]; [21]
  AUC(0-inf): 25.8 µg·h/mL
  Cmax: 11.6 µg/mL
  Tmax: 60 min
  half-life: 72 min
[2]; [22]
  AUC(0-inf): 87.5 µg·h/mL
  Cmax: 38.1 µg/mL
  Tmax: 24 min
  half-life: 132 min
[2]; beagle, dog, po, 50 mg/kg, TPGS/PEG400 (sol'n), reference Compound 1 IV infusion
  bioavailability: 68%
[2]; [7]
  AUC(0-inf): 6.52 µg·h/mL
  Cmax: 1.33 µg/mL
  Tmax: 120 min
  half-life: 150 min
[2]; beagle, dog, po, 50 mg/kg, capsule (powder), 50 mg/kg as Compound 1 (free acid), reference Compound 1 IV infusion, based on AUC of Compound 1
  bioavailability: < 5%
[2]; [23]
  AUC(0-inf): 57.5 µg·h/mL
  Cmax: 16.8 µg/mL
  Tmax: 48 min
  half-life: 288 min
[2]; beagle, dog, po, 50 mg/kg, nanoparticles (colloidal dispersion), reference Compound 1 IV infusion
  bioavailability: 44.6%
Aqueous solubility
  solubility: < 0.1 mg/mL

## CN(NC(=O)CC(=O)NN(C)C(=S)c1ccccc1)C(=S)c1ccccc1 [Compound 26]
[1]; [6]
  AUC(0-inf): 1.08 µg·h/mL
  Cmax: 0.25 µg/mL
  Tmax: 54 min
  half-life: 222 min
[2]; [24]
  AUC(0-inf): 45.6 µg·h/mL
  Cmax: 19.7 µg/mL
  Tmax: 60 min
  half-life: 180 min
